# In patent US6544985B2, “Dihydro-benzo [b][1,4]diazepin-2-one derivatives” (Hoffman-La Roche Inc., priority 2001, dated 2003):
row,melting point,SMILES
1,160 °C,"CN(C)c1cc2c(cc1C(F)(F)F)NC(=O)CC(c1cccc(-c3cc(CN4CCCC4)no3)c1)=N2 [Example 53, 7-Dimethylamino-4-[3-(3-pyrrolidin-1-ylmethyl-isoxazol-5-yl)-phenyl]-8-trifluoromethyl-1,3-dihydro-benzo[b][1,4]diazepin-2-one]"
2,184 to 185 °C,"O=C1CC(c2cccc(-n3nncc3CO)c2)=Nc2cc(N3CCCC3)c(F)cc2N1 [Example 58, 8-Fluoro-4-[3-(5-hydroxymethyl-[1,2,3]triazol-1-yl)-phenyl]-7-pyrrolidin-1-yl-1,3-dihydro-benzo[b][1,4]diazepin-2-one]"
3,276 °C,"N#Cc1cc(C2=Nc3cc(N4CCC4)c(Cl)cc3NC(=O)C2)ccn1 [Example 59, 4-(8-Azetidin-1-yl-7-chloro-4-oxo-4,5-dihydro-3H-benzo[b][1,4]diazepin-2-yl)-pyridine-2-carbonitrile]"
4,202 °C (dec.),"O=C1CC(c2cccc(-n3nncc3CO)c2)=Nc2cc(N3CCC3)c(C(F)(F)F)cc2N1 [Example 63, 7-Azetidin-1-yl-4-[3-(5-hydroxymethyl-[1,2,3]triazol-1-yl)-phenyl]-8-trifluoromethyl-1,3-dihydro-benzo[b][1,4]diazepin-2-one]"
5,176 °C,"CN(C)c1cc2c(cc1C(F)(F)F)NC(=O)CC(c1cccc(-n3cccn3)c1)=N2 [Example 64, 7-Dimethylamino-4-(3-pyrazol-1-yl-phenyl)-8-trifluoromethyl-1,3-dihydro-benzo[b][1,4]diazepin-2-one]"
6,203 to 205 °C,"CN(C)c1cc2c(cc1C(F)(F)F)NC(=O)CC(c1cccc(-n3ccnc3)c1)=N2 [Example 66, 7-Dimethylamino-4-(3-imidazol-1-yl-phenyl)-8-trifluoromethyl-1,3-dihydro-benzo[b][1,4]diazepin-2-one]"
7,207 to 208 °C,"Cc1noc(-c2cccc(C3=Nc4cc(N(C)C)c(C(F)(F)F)cc4NC(=O)C3)c2)c1CO [Example 69, 7-Dimethylamino-4-[3-(4-hydroxymethyl-3-methyl-isoxazol-5-yl)-phenyl]-8-trifluoromethyl-1,3-dihydro-benzo[b][1,4]diazepin-2-one]"
8,217 to 219 °C,"CN(C)c1cc2c(cc1C(F)(F)F)NC(=O)CC(c1cccc(-c3nocc3CO)c1)=N2 [Example 70, 7-Dimethylamino-4-[3-(4-hydroxymethyl-isoxazol-3-yl)-phenyl]-8-trifluoromethyl-1,3-dihydro-benzo[b][1,4]diazepin-2-one]"
9,168 to 170 °C,"CN(C)c1cc2c(cc1C(F)(F)F)NC(=O)CC(c1cccc(-n3nncc3CNCC(F)(F)F)c1)=N2 [Example 76, 7-Dimethylamino-4-(3-{5-[(2,2,2-trifluoro-ethylamino)methyl]-[1,2,3]triazol-1-yl}-phenyl)8-trifluoromethyl-1,3-dihydro-benzo[b][1,4]diazepin-2-one]"
10,212 °C,"CN(CC1CC1)c1cc2c(cc1C(F)(F)F)NC(=O)CC(c1cccc(-n3nncc3CO)c1)=N2 [Example 77, 7-(Cyclopropylmethyl-methyl-amino)-4-[3-(5-hydroxymethyl-[1,2,3]triazol-1-yl)-phenyl]-8-trifluoromethyl-1,3-dihydro-benzo[b][1,4]diazepin-2-one]"
11,200 to 205 °C,"CN(c1cc2c(cc1C(F)(F)F)NC(=O)CC(c1ccnc(C#N)c1)=N2)C1CC1 [Example 83, 4-[8-(Cyclopropyl-methyl-amino)-4-oxo-7-trifluoromethyl-4,5-dihydro-3H-benzo[b][1,4]diazepin-2-yl]-pyridine-2-carbonitrile]"
12,228 to 229 °C,"CN(C)c1cc2c(cc1C(F)(F)F)NC(=O)CC(c1cccc(-n3nccc3CO)c1)=N2 [Example 86, 7-Dimethylamino-4-[3-(5-hydroxymethyl-pyrazol-1-yl)-phenyl]-8-trifluoromethyl-1,3-dihydro-benzo[b][1,4]diazepin-2-one]"

# More lines, now with the values behind:
row,SMILES,melting point
1,"O=C1CC(c2cccc(-n3nncc3CO)c2)=Nc2cc(N3CCCCC3)c(Cl)cc2N1 [Example 50, 8-Chloro-4-[3-(5-hydroxymethyl-[1,2,3]triazol-1-yl)-phenyl]-7-piperidin-1-yl-1,3-dihydro-benzo[b][1,4]diazepin-2-one]",246 °C (dec.)
2,"CN(C)c1cc2c(cc1C(F)(F)F)NC(=O)CC(c1cccc(-c3cc(CO)on3)c1)=N2 [Example 51, 7-Dimethylamino-4-[3-(5-hydroxymethyl-isoxazol-3-yl)-phenyl]-8-trifluoromethyl-1,3-dihydro-benzo[b][1,4]diazepin-2-one]",211 °C (dec.)
3,"CN(C)Cc1cc(-c2cccc(C3=Nc4cc(N(C)C)c(C(F)(F)F)cc4NC(=O)C3)c2)on1 [Example 55, 7-Dimethylamino-4-[3-(3-dimethylaminomethyl-isoxazol-5-yl)-phenyl]-8-trifluoromethyl-1,3-dihydro-benzo[b][1,4]diazepin-2-one]",160 °C
4,"N#Cc1cc(C2=Nc3cc(N4CCCC4)c(F)cc3NC(=O)C2)ccn1 [Example 56, 4-(7-Fluoro-4-oxo-8-pyrrolidin-1-yl-4,5-dihydro-3H-benzo[b][1,4]diazepin-2-yl)-pyridine-2-carbonitrile]",278 to 279 °C
5,"Cc1cc(-c2cccc(C3=Nc4cc(N5CCCC5)c(F)cc4NC(=O)C3)c2)on1 [Example 57, 8-Fluoro-4-[3-(3-methyl-isoxazol-5-yl)-phenyl]-7-pyrrolidin-1-yl-1,3-dihydro-benzo[b][1,4]diazepin-2-one]",236 °C
6,"O=C1CC(c2cccc(-c3cc(CO)on3)c2)=Nc2cc(N3CCCC3)c(C(F)(F)F)cc2N1 [Example 60, 4-[3-(5-Hydroxymethyl-isoxazol-3-yl)-phenyl]-7-pyrrolidin-1-yl-8-trifluoromethyl-1,3-dihydro-benzo[b][1,4]diazepin-2-one]",206 to 208 °C
7,"N#Cc1cc(C2=Nc3cc(N4CCC4)c(C(F)(F)F)cc3NC(=O)C2)ccn1 [Example 61, 4-(8-Azetidin-1-yl-4-oxo-7-trifluoromethyl-4,5-dihydro-3H-benzo[b][1,4]diazepin-2-yl)-pyridine-2-carbonitrile]",241 °C
8,"Cc1cc(-c2cccc(C3=Nc4cc(N5CCC5)c(C(F)(F)F)cc4NC(=O)C3)c2)on1 [Example 62, 7-Azetidin-1-yl-4-[3-(3-methyl-isoxazol-5-yl)-phenyl]-8-trifluoromethyl-1,3-dihydro-benzo[b][1,4]diazepin-2-one]",239 °C (dec.)
9,"CN(C)c1cc2c(cc1C(F)(F)F)NC(=O)CC(c1cccc(-n3cnnc3)c1)=N2 [Example 65, 7-Dimethylamino-4-(3-[1,2,4]triazol-4-yl-phenyl)-8-trifluoromethyl-1,3-dihydro-benzo[b][1,4]diazepin-2-one]",247 to 250 °C
10,"CN(C)c1cc2c(cc1Cl)NC(=O)CC(c1cccc(-n3cc(CO)cn3)c1)=N2 [Example 67, 8-Chloro-7-dimethylamino-4-[3-(4-hydroxymethyl-pyrazol-1-yl)-phenyl]-1,3-dihydro-benzo[b][1,4]diazepin-2-one]",211 °C
11,"CN(C)c1cc2c(cc1C(F)(F)F)NC(=O)CC(c1cccc(-n3cc(CO)cn3)c1)=N2 [Example 68, 7-Dimethylamino-4-[3-(4-hydroxymethyl-pyrazol-1-yl)-phenyl]-8-trifluoromethyl-1,3-dihydro-benzo[b][1,4]diazepin-2-one]",175 °C
12,"CN(C)c1cc2c(cc1C(F)(F)F)NC(=O)CC(c1cccc(-c3c(CO)cnn3C)c1)=N2 [Example 72, 7-Dimethylamino-4-[3-(4-hydroxymethyl-2-methyl-2H-pyrazol-3-yl)-phenyl]-8-trifluoromethyl-1,3-dihydro-benzo[b][1,4]diazepin-2-one]",243 to 244 °C
13,"CN(C)c1cc2c(cc1Cl)NC(=O)CC(c1cccc(-n3cncn3)c1)=N2 [Example 73, 8-Chloro-7-dimethylamino-4-(3-[1,2,4]triazol-1-yl-phenyl)-1,3-dihydro-benzo[b][1,4]diazepin-2-one]",239 to 241 °C
14,"CN(C)c1cc2c(cc1C(F)(F)F)NC(=O)CC(c1cccc(-n3cncn3)c1)=N2 [Example 74, 7-Dimethylamino-4-(3-[1,2,4]triazol-1-yl-phenyl)-8-trifluoromethyl-1,3-dihydro-benzo[b][1,4]diazepin-2-one]",228 to 230 °C
15,"CN(C)c1cc2c(cc1C(F)(F)F)NC(=O)CC(c1cccc(C#N)c1)=N2 [Example 75, 3-(8-Dimethylamino-4-oxo-7-trifluoromethyl-4,5-dihydro-3H-benzo[b][1,4]diazepin-2-yl)-benzonitrile]",224 to 227 °C
16,"CN(C)c1cc2c(cc1C(F)(F)F)NC(=O)CC(c1cccc(-n3cc(CNC4CC4)cn3)c1)=N2 [Example 79, 4-[3-(4-Cyclopropylaminomethyl-pyrazol-1-yl)-phenyl]-7-dimethylamino-8-trifluoromethyl-1,3-dihydro-benzo[b][1,4]diazepin-2-one]",135 °C
17,"CN(CC1CC1)c1cc2c(cc1C(F)(F)F)NC(=O)CC(c1cccc(-n3nncc3CNC3CC3)c1)=N2 [Example 80, 4-[3-(5-Cyclopropylaminomethyl-[1,2,3]triazol-1-yl)-phenyl]-7-(cyclopropylmethyl-methyl-amino)-8-trifluoromethyl-1,3-dihydro-benzo[b][1,4]diazepin-2-one]",35 to 46 °C
18,"CN(C)c1cc2c(cc1C(F)(F)F)NC(=O)CC(c1cccc(-c3ccnn3CCO)c1)=N2 [Example 81, 7-Dimethylamino-4-{3-[2-(2-hydroxy-ethyl)-2H-pyrazol-3-yl]-phenyl}-8-trifluoromethyl-1,3-dihydro-benzo[b][1,4]diazepin-2-one]",138 °C
19,"CN(C)c1cc2c(cc1C(F)(F)F)NC(=O)CC(c1cccc(-n3nncc3CCO)c1)=N2 [Example 85, 7-Dimethylamino-4-{3-[5-(2-hydroxy-ethyl)-[1,2,3]triazol-1-yl]-phenyl}-8-trifluoromethyl-1,3-dihydro-benzo[b][1,4]diazepin-2-one]",172 to 175 °C
20,"CN(C)c1cc2c(cc1C(F)(F)F)NC(=O)CC(c1cccc(-n3ccnn3)c1)=N2 [Example 87, 7-Dimethylamino-4-(3-[1,2,3]triazol-1-yl-phenyl)-8-trifluoromethyl-1,3-dihydro-benzo[b][1,4]diazepin-2-one]",210 to 212 °C
